Values quoted from earlier work, collected in US20120016021A1, “METHODS OF TREATING FRAGILE X SYNDROME, DOWN'S SYNDROME, AUTISM AND RELATED DISORDERS” (XENOPORT, INC., priority 2010, published 2012).

Columns and labels:
[1] = administered orally
Fmr1 KO mice = conditions: low doses (1 mg/kg), audiogenically induced seizures
[2] = animal models

NCC(CC(=O)O)c1ccc(Cl)cc1 (racemic) [baclofen, 4-amino-3-(4-chlorophenyl)butanoic acid]
elimination half-life [1]: 3 to 4 h
locomotor activity (Fmr1^/− animals; baclofen at 3 mg/kg, Fmr1^/− animals): inhibits locomotor activity
dose needed for comparable locomotor suppression in animals reared by Fmr1^+/+ mothers versus Fmr1^/− animals (Fmr1^/− animals; relative to 3 mg/kg): 2 fold
seizure incidence (Fmr1 KO mice): significantly inhibits seizure incidence
absorption following administration into the colon [2]: poorly absorbed

Cc1nc2n(c(=O)c1CCN1CCC(c3noc4cc(F)ccc34)CC1)CCCC2 [risperidone]
social isolation and communication (autistic children): not improved
irritability subscale of the Aberrant Behavior Checklist and Clinical Global Impressions-Improvement (autistic children; placebo-controlled): significant improvement
